Measurements from US20130150350A1, “Derivatives of 1-Phenyl-1,5-Dihydro-Benzo[B] [1,4]Diazepine-2,4-Dione as Inhibitors of HIV Replication” (BOEHRINGER INGELHEIM INTERNATIONAL GMBH, priority 2010, published 2013).
Like-named read-outs stand apart in the source and are kept apart here.

Key:
[1] = biological target: T1, HIV-1NL4-3 CA-NC protein (SEQ ID NO: 2) (Human immunodeficiency virus type 1 group M subtype B, UniProt P12493, G226D); test: Immobilized capsid assembly assay (CAA); type: biochemical
T1 construct: HIV-1NL4-3 CA-NC, Gag residues 133-432; initiator Met (start codon introduced by PCR primer) (N); made in house; host or cells: E. coli BL21(DE3), pET-11a
Excerpt: (§1) SEQ ID NO: 1 is a nucleic acid of 900 base pairs encoding HIV-1NL4-3 CA-NC, Gag residues 133-432, having the CA G94D mutation (SEQ ID NO: 2). SEQ ID NO: 1, is transferred to pET-11a expression vector (Novagen™) by PCR amplification using primers that introduce an NdeI site and a start codon at the 5′-end and a BamHI site and a stop codon at the 3′-end. Resistance mutations in CA were identified by passage of the HIV-1 virus in the presence of compounds of the invention, namely V27A/I, K30R, S33G, V36T, T58I, G61E, G208A/R, E213G, K30R/T58I, K30R/G208R, V36T/G208R, S33G/T58I, S33G/G208R and T58I/G208R, all numbered with reference to SEQ ID NO: 2,. These resistance mutations may be introduced in the expression vector using the QuikChange® II Site-Directed Mutagenesis Kit (Stratagene) according to the manufacturer's instructions. SEQ ID NOS: 2 is expressed in the BL21(DE3) E. coli cells (Novagen™). Briefly, LB media is inoculated with overnight pre-cultures and grown at 37° C. until mid log-phase (Abs600 ˜0.6), protein expression is induced by addition of 0.5-1 mM isopropyl-β,D-thiogalactopyranoside (IPTG) and carried out for 4 to 6 hours at 30° C. Cells are harvested by centrifugation and pellets are stored at −80° C. until purification.
(§2) Purification of CA-NC (SEQ ID NO: 2) is as follows: 5 to 10 g of cell paste are lysed by sonication in 40 ml of Buffer A [20 mM Tris pH 7.5; 1 μM ZnCl2; 10 mM β-mercaptoethanol] supplemented with 0.5M NaCl and Complete EDTA-free® protease inhibitors tablets (Roche). Nucleic acids and cell debris are removed by adding 0.11 volumes of 0.2 M ammonium sulfate and an equivalent volume of 10% poly-(ethyleneimine) pH 8.0, stirring the sample for 20 minutes at 4° C., followed by centrifugation at 30 000×g for 20 minutes. SEQ ID NO: 2 is recovered from the supernatant by adding 0.35 volumes of saturated ammonium sulfate solution followed by centrifugation at 10 000×g for 15 minutes. The pellet is dissolved in 10 ml of Buffer A+0.1 M NaCl and dialyzed overnight in the same buffer but at 0.05 M NaCl (Dialysis Buffer). The sample is then cleared by centrifugation and passed on a 1-ml HiTrapTMSP HP column (GE Healthcare) pre-equilibrated with Dialysis Buffer. SEQ ID NO: 2 is eluted with Buffer A+0.5 M NaCl, fractions containing the protein are pooled; concentration determination is done by Abs280 using the calculated molar extinction coefficient (E=40220 M-1 cm-1).
Reacti-Bind Neutravidin Coated black 384-well plates (Pierce Cat#15402) are washed with 80 μl/well of Buffer A (50 mM Tris pH 8.0; 350 mM NaCl; 10 μM ZnSO4; 0.0025% CHAPS (w/v); 50 μg/ml bovine serum albumin (BSA); 1 mM DTT). Immobilization of a 5′-end biotin labeled (TG)25 oligonucleotide (Integrated DNA Technology Inc.) is carried out by adding 50 μl/well of a 25 nM solution of oligonucleotide in Buffer A+5 mg/ml of BSA (Sigma™) and incubating overnight. Unbound material is removed by two 80 μl/well washes with Buffer A. Assembly reactions are performed in 60 μl/well reactions comprising test compound, 100 nM of 5′-end fluorescein labeled (TG)25 oligonucleotide (Integrated DNA Technology Inc.) and 2 μM of CA-NC protein (SEQ ID NO: 2), using Buffer A+1% DMSO. Assembly reactions are incubated for 2 hours at room temperature and non-immobilized material is removed by two successive 80 μl/well washes with Buffer A. Finally, 80 μl/well of Buffer A+0.1% sodium dodecyl sulfate (SDS) is added and incubated for 15 minutes prior to quantification of captured fluorescence on a Victor2 plate reader (PerkinElmer Life Sciences) equipped with fluorescein excitation and emission filters using the standard manufacturer's settings for fluorescein fluorescence. The amount of captured fluorescence is considered to be proportional to the level of assembly. The IC50 values for each compound are generated by fitting inhibition curves from ten-point dilution series to the following equation: […]

[2] = biological target: T2, assembled HIV-1 capsid complexes (CA-NC protein, SEQ ID NO: 2) (Human immunodeficiency virus type 1 group M subtype B, UniProt P12493, G226D); test: Capsid disassembly assay (CDA); type: biochemical
T2 construct: HIV-1NL4-3 CA-NC, Gag residues 133-432; initiator Met (start codon introduced by PCR primer) (N); made in house; host or cells: E. coli BL21(DE3), pET-11a
Excerpt: The GAG polyprotein is the major structural protein required for HIV viral particle assembly. During the maturation process, Gag is cleaved by the viral protease and releases its four major proteins, matrix (MA), capsid (CA), nucleocapside (NC) and p6, as well as two spacer peptides termed SP1 and SP2. This triggers profound morphological changes to the viral particle as CA will reassemble to form the viral core, a structure that is essential for viral infectivity.
as §1, §2
Reacti-Bind Neutravidin Coated black 384-well plates (Pierce Cat#15402) are washed with 80 μl/well of Buffer A (50 mM Tris pH 8.0; 350 mM NaCl; 10 μM ZnSO4; 0.0025% CHAPS (w/v); 50 μg/ml BSA; 1 mM DTT). Immobilization of a 5′-end biotin labeled (TG)25 oligonucleotide (Integrated DNA Technology Inc.) is carried out by adding 50 μl/well of a 25 nM solution of oligonucleotide in Buffer A+5 mg/ml BSA and incubating overnight. Unbound material is removed by two 80 μl/well washes with Buffer A. Assembly reactions are performed in 60 μl/well reactions comprising 100 nM of 5′-end fluorescein labeled (TG)25 oligonucleotide (Integrated DNA Technology Inc.) and 2 μM of CA-NC protein (SEQ ID NO: 2), using Buffer A. Assembly reactions are incubated for 2 hours at room temperature and non-immobilized material is removed by washing 80 μl/well with Buffer A. Test compounds, serially diluted in Buffer A+0.125% dimethyl sulfoxide (DMSO), are added to the wells (60 μl/well) and incubated at room temperature for 2 hours. […]

[3] = tested on: HIV-1 replication in C8166 LTRluc cells; test: C8166 HIV-1 luciferase assay; type: cell-based; settings: Human immunodeficiency virus 1, 72 h, inhibition of HIV-1 replication, moi 0.005, 3 days
Protocol: The assay used to measure inhibition of HIV replication is as described in WO 2004/050643, pages 73-75, herein incorporated by reference, with the following modifications:
Serial dilutions of HIV-1 inhibitors are prepared in complete media from DMSO stock solutions. Eleven serial dilutions of desired concentration are prepared in a 1 mL deep well titer plate (96 wells). The 12th well contains complete media with no inhibitor and serves as the positive control. All samples contain the same concentration of DMSO 0.1% DMSO). Inhibitor is added, to triplicate wells, of a 96 well tissue culture treated clear view black microtiter plate (Corning Costar catalogue #3904). The total volume per well is 200 μL of media containing the cells and inhibitor. The last row is reserved for uninfected C8166 LTRluc cells to serve as the background blank control and the first row is media alone.
Count C8166 LTRluc cells and place in a minimal volume of complete RPMI 1640 in a tissue culture flask (ex. 30×10^6 cells in 10 mL media/25 cm^2 flask). Infect cells with HIV-1 at a moi of 0.005. Incubate cells for 1.5 hours at 37° C. on a rotating rack in a 5% CO2 incubator. Resuspend cells in complete RPMI to give a final concentration of 25,000-cells/well. Add cells to wells of 96 well microtiter plate containing inhibitors. Add 25,000 uninfected C8166—LTRluc cells/well in 200 μL complete RPMI to last row for background control. Incubate cells at 37° C. in 5% CO2 incubator for 3 days.

[4] = concentration for 50% inhibition of capsid assembly, 2 μM CA-NC, 2 hours at room temperature, read-out: IC50 (μM) CAA
[5] = concentration for 50% disassembly of assembled complexes, 2 hours at room temperature, read-out: IC50 (μM) CDA

SMILES	IC50 [1] [µM]	IC50 [2] [µM]	EC50 [3] [nM]	IC50 [1, 4] [µM]	IC50 [2, 5] [µM]
CCN1C(=O)C2(CCc3ccccc32)C(=O)N(c2ccccc2)c2cc(C(F)(F)F)ccc21 (racemic) [Compound 7001]	0.73	0.46	1500	–	–
CCN1C(=O)/C(=C/NCCOC)C(=O)N(c2ccccc2)c2cc(Cl)ccc21 [Compound 1004]	–	–	12700	0.47	0.38
COCCN/C=C1/C(=O)N(C)c2ccc(C(F)(F)F)cc2N(c2ccccc2)C1=O [Compound 1011]	0.89	0.86	12000	–	–
CCN1C(=O)C(c2ccccc2)C(=O)N(c2ccccc2)c2cc(C(F)(F)F)ccc21 (centres unmarked) [Compound 2002]	0.73	0.48	2600	–	–
CCN1C(=O)C(c2ccccc2)C(=O)N(c2cccs2)c2cc(C(F)(F)F)ccc21 (centres unmarked) [Compound 2003]	0.81	0.39	2500	–	–
CN1C(=O)C(c2ccc(O)cc2)C(=O)N(c2ccccc2)c2cc(C(F)(F)F)ccc21 (centres unmarked) [Compound 2009]	0.91	0.14	900	–	–
CCN1C(=O)C(c2ccc(CN3CCNCC3)cc2)C(=O)N(c2ccccc2)c2cc(C(F)(F)F)ccc21 (centres unmarked) [Compound 2018]	0.52	0.28	800	–	–
CCN1C(=O)C(c2ccc(-c3cccnc3)cc2)C(=O)N(c2ccccc2)c2cc(C(F)(F)F)ccc21 (centres unmarked) [Compound 2030]	0.39	0.32	400	–	–
CCN1C(=O)C(c2cccc(-c3cccnc3)c2O)C(=O)N(c2ccccc2)c2cc(C(F)(F)F)ccc21 (centres unmarked) [Compound 2035]	1.28	–	5800	–	–
CCCn1cc(-c2cc(C3C(=O)N(CC)c4ccc(C(F)(F)F)cc4N(c4ccccc4)C3=O)cc(OC)c2O)cn1 (centres unmarked) [Compound 2059]	0.45	0.16	70	–	–
CCN1C(=O)C(c2cccnc2)C(=O)N(c2ccccc2)c2cc(C(F)(F)F)ccc21 (centres unmarked) [Compound 2076]	1.6	–	4100	–	–
CCN1C(=O)N(c2ccccc2)C(=O)N(c2ccccc2)c2cc(C(F)(F)F)ccc21 [Compound 3011]	–	–	600	0.63	0.18
CCN1C(=O)N(c2ccc(CO)cc2)C(=O)N(c2ccccc2)c2cc(C(F)(F)F)ccc21 [Compound 3027]	–	–	700	–	0.1
CCN1C(=O)N(c2ccc(C(=O)O)cc2)C(=O)N(c2ccccc2)c2cc(C(F)(F)F)ccc21 [Compound 3034]	–	–	2600	–	0.27
CCN1C(=O)N(c2ccc(C(=O)NC[C@@H]3CCCN3CC)cc2)C(=O)N(c2ccccc2)c2cc(C(F)(F)F)ccc21 [Compound 3055]	–	–	400	–	0.13
CN1c2ccc(Cl)cc2N(c2ccccc2)C(=O)c2cn(C)nc21 [Compound 4002]	–	–	6900	0.71	–
CN1c2ccc(Cl)cc2N(c2ccccc2)C(=O)c2c[nH]nc21 [Compound 4007]	–	–	7800	0.31	–
CN1c2ccc(Cl)cc2N(c2ccccc2)C(=O)c2cn(Cc3ccncc3)nc21 [Compound 4032]	–	–	300	0.55	–
CCN1c2ccc(Cl)cc2N(c2ccccc2)C(=O)c2c1ncn2C [Compound 5001]	–	–	1500	0.36	–
CN1c2ccc(C(F)(F)F)cc2N(c2ccccc2)C(=O)c2c1ncn2C [Compound 5003]	–	–	5500	0.26	–
CN1c2cccc(F)c2N(c2ccccc2)C(=O)c2c1ncn2C [Compound 5005]	–	–	400	0.32	–
COCCNCc1ccc(Cn2cnc3c2C(=O)N(c2ccccc2)c2cc(Cl)ccc2N3C)cc1 [Compound 5026]	–	–	900	0.17	–
CN1c2ccc(Cl)cc2N(c2ccccc2)C(=O)c2scnc21 [Compound 6001]	–	–	8100	1	–
CCN1C(=O)C2(CCc3cc(-c4ccnn4C)ccc32)C(=O)N(c2ccccc2)c2cc(C(F)(F)F)ccc21 (centres unmarked) [Compound 7012]	–	0.2	200	–	–
CCN1C(=O)C2(CCc3c2ccc(-c2cncnc2)c3OC)C(=O)N(c2ccccc2)c2cc(C(F)(F)F)ccc21 (centres unmarked) [Compound 7030]	–	0.17	600	–	–
CCN1C(=O)C2(C=C(C)c3cc(O)ccc32)C(=O)N(c2ccccc2)c2cc(C(F)(F)F)ccc21 (centres unmarked) [Compound 7037]	–	0.3	1000	–	–
